Assay [1] deals with HeLa. The assay can be described thus: Induction of cell cycle arrest in human HeLa cells assessed as accumulation at S phase at 500 nM incubated for 24 hrs by PI staining based flow cytometric analysis (reference value: 21.94%). The class given is functional. (A flow cytometer gives signals particle by particle.)
The test system of assay [2] is HeLa. As to the kind of experiment: Induction of morphological changes in human HeLa cells assessed as decrease in colony formation incubated for 24 hrs by microscopic method. The class given is functional, cell-based.
The test system of assay [3] is HeLa. As to the kind of experiment: Induction of cell cycle arrest in human HeLa cells assessed as accumulation at S phase at 100 nM incubated for 24 hrs by PI staining based flow cytometric analysis (reference value: 21.94%). The assay is classed as functional.
The test system of assay [4] is HeLa. As to the kind of experiment: Induction of microtubule fragmentation in human HeLa cells incubated for 3 hrs by confocal microscopic method. The class given is functional, cell-based.
For assay [5], the system named is HeLa. The assay can be described thus: Induction of apoptosis in human HeLa cells assessed as necrotic cells at 500 nM incubated for 48 hrs by annexin V-FITC/propidium iodide staining based flow cytometric analysis (reference value: 0.234%). The assay is classed as functional.
The subject of assay [6] is HeLa. The assay can be described thus: Induction of mitochondrial membrane potential disruption in human HeLa cells at 200 nM incubated for 48 hrs by JC1 staining based flow cytometric analysis (reference value: 10.6%). The assay is classed as functional.
Assay [7] relates to HeLa. As to the kind of experiment: Induction of apoptosis in human HeLa cells assessed as live cells at 250 nM incubated for 48 hrs by annexin V-FITC/propidium iodide staining based flow cytometric analysis (reference value: 95.3%). The assay is classed as functional.
Assay [8] deals with HeLa. The assay can be described thus: Induction of mitochondrial membrane potential disruption in human HeLa cells at 250 nM incubated for 48 hrs by JC1 staining based flow cytometric analysis (reference value: 10.6%). The assay is classed as functional.
For assay [9], the system named is HeLa. The assay can be described thus: Induction of cell cycle arrest in human HeLa cells assessed as accumulation at G2/M phase incubated for 24 hrs by PI staining based flow cytometric analysis. The class given is functional.
Assay [10] deals with HeLa. As to the kind of experiment: Induction of cell cycle arrest in human HeLa cells assessed as accumulation at G0/G1 phase at 100 nM incubated for 24 hrs by PI staining based flow cytometric analysis (reference value: 68.86%). The assay is classed as functional.
In assay [11] the test system is HeLa. As to the kind of experiment: Induction of apoptosis in human HeLa cells assessed as necrotic cells at 250 nM incubated for 48 hrs by annexin V-FITC/propidium iodide staining based flow cytometric analysis (reference value: 0.234%). The class given is functional.
For assay [12], the system named is HeLa. The assay can be described thus: Induction of cell cycle arrest in human HeLa cells assessed as accumulation at G0/G1 phase at 200 nM incubated for 24 hrs by PI staining based flow cytometric analysis (reference value: 68.86%). The class given is functional.

With `COc1cc(C(=O)c2nc(Nc3cccc(C)c3)nc3ccsc23)cc(OC)c1OC`, the Activity in assay [1] was 6.57%; in assay [2] it was “Dose-dependent effect”; in [3] it was 30.76%; in [4] it was “Dose-dependent effect”; in assay [5], 11.4%; in [6], 30.9%. Besides, the Activity in assay [7] is 23.6%; in assay [8] it was 65.5%; in assay [9], “Dose-dependent effect”; in assay [10] it was 59.55%; in assay [11], 9.34%; in [12], 48.16%.

The values above are taken from ChEMBL document CHEMBL4311971, “Design and synthesis of (2-(phenylamino)thieno[3,2-d]pyrimidin-4-yl)(3,4,5-trimethoxyphenyl)methanone analogues as potent anti-tubulin polymerization agents” (Eur J Med Chem, 2019).
